In US12577206B2 (BRISTOL-MYERS SQUIBB COMPANY, priority 2020, dated 2026):

Columns and labels:
human FPR1 = target: T1, human FPR1 (Homo sapiens, UniProt P21462); test: FPR1 cyclic adenosine monophosphate (cAMP) assay; type: cell-based; details: CHO cells overexpressing human FPR1; forskolin 10 μM; inhibition of cAMP production; HTRF; read-out: hFPR1 cAMP2 EC50
T1 sequence (P21462 1-350): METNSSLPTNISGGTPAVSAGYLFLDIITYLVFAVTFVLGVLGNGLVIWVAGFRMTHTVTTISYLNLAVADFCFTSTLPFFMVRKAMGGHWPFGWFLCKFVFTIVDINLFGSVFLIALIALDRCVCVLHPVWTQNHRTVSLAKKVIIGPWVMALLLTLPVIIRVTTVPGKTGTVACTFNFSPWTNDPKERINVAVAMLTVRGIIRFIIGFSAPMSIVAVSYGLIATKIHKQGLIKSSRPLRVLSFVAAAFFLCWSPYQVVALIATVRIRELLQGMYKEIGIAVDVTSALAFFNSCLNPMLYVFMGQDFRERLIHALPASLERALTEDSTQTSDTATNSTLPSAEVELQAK
How it was run: (§1)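 CHO cells overexpressing human FPR1 (4,000/well) or FPR2 (2,000/well) were incubated 30 min at room temperature with compound (0.020 nM to 100 μM, 1% DMSO), IBMX 200 μM, and forskolin at 10 μM (FPR1) or 5 μM (FPR2), all final. HTRF cAMP read-out; inhibition fitted by 4-parameter logistic equation.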

human FPR2 = target: T2, human FPR2 (Homo sapiens, UniProt P25090); test: FPR2 cyclic adenosine monophosphate (cAMP) assay; type: cell-based; details: CHO cells overexpressing human FPR2; forskolin 5 μM; inhibition of cAMP production; HTRF; read-out: hFPR2 cAMP2 EC50
T2 sequence (P25090 1-351): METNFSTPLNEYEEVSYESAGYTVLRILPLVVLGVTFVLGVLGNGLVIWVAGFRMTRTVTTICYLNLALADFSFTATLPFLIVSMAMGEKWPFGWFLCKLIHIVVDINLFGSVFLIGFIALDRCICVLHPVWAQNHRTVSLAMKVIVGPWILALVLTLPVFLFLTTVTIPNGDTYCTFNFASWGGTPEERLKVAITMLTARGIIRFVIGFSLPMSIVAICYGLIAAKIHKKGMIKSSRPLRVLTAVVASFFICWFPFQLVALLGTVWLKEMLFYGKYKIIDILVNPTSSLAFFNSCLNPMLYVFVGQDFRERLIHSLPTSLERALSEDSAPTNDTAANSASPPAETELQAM
How it was run: as §1

Row | EC50 (human FPR1) [µM] | EC50 (human FPR2) [nM] | SMILES
1 | > 5 | 13 | COc1cc(F)c(-c2c(NC(=O)c3ccc(OC(F)F)cc3)c(=O)n(-c3nc(OCC4CC4)ccc3C(F)(F)F)n2C)c(F)c1 [Example 287, N-{2-[6-(cyclopropylmethoxy)-3-(trifluoromethyl)pyridin-2-yl]-5-(2,6-difluoro-4-methoxyphenyl)-1-methyl-3-oxo-2,3-dihydro-1H-pyrazol-4-yl}-4-(difluoromethoxy)benzamide]
2 | > 10 | 1 | COc1cc(F)c(-c2c(NC(=O)c3ccc(OC(F)F)cc3)c(=O)n(-c3nc(OCC(C)(C)O)ccc3C(F)(F)F)n2C)c(F)c1 [Example 288, N-[5-(2,6-difluoro-4-methoxyphenyl)-2-[6-(2-hydroxy-2-methylpropoxy)-3-(trifluoromethyl)pyridin-2-yl]-1-methyl-3-oxo-2,3-dihydro-1H-pyrazol-4-yl]-4-(difluoromethoxy)benzamide]
3 | > 10 | 4 | COC(=O)COc1ccc(C(F)(F)F)c(-n2c(=O)c(NC(=O)c3ccc(OC(F)F)cc3)c(-c3c(F)cc(OC)cc3F)n2C)n1 [Example 289, methyl 2-({6-[3-(2,6-difluoro-4-methoxyphenyl)-4-[4-(difluoromethoxy)benzamido]-2-methyl-5-oxo-2,5-dihydro-1H-pyrazol-1-yl]-5-(trifluoromethyl)pyridin-2-yl}oxy)acetate]

The remaining lines, values behind:

Row | SMILES | EC50 (human FPR1) [µM] | EC50 (human FPR2) [nM]
4 | COc1cc(F)c(-c2c(NC(=O)c3ccc(OC(F)F)cc3)c(=O)n(-c3nc(NCC4(CO)CCC4)ccc3C(F)(F)F)n2C)c(F)c1 [Example 290, N-[5-(2,6-difluoro-4-methoxyphenyl)-2-[6-({[1-(hydroxymethyl)cyclobutyl]-methyl}amino)-3-(trifluoromethyl)pyridin-2-yl]-1-methyl-3-oxo-2,3-dihydro-1H-pyrazol-4-yl]-4-(difluoromethoxy)benzamide] | > 10 | 1
5 | COc1cc(F)c(-c2c(NC(=O)c3ccc(OC(F)F)cc3)c(=O)n(-c3nc(C(C)(C)O)ccc3C#N)n2C)c(F)c1 [Example 291, N-{2-[3-cyano-6-(2-hydroxypropan-2-yl)pyridin-2-yl]-5-(2,6-difluoro-4-methoxyphenyl)-1-methyl-3-oxo-2,3-dihydro-1H-pyrazol-4-yl}-4-(difluoromethoxy)benzamide] | > 10 | 2
6 | COc1cc(F)c(-c2c(NC(=O)c3ccc(OC(F)F)cc3)c(=O)n(-c3nc(N4CC[C@@H](CO)C4)ccc3C(F)(F)F)n2C)c(F)c1 [Example 292, N-[5-(2,6-difluoro-4-methoxyphenyl)-2-{6-[(3R)-3-(hydroxymethyl)pyrrolidin-1-yl]-3-(trifluoromethyl)pyridin-2-yl}-1-methyl-3-oxo-2,3-dihydro-1H-pyrazol-4-yl]-4-(difluoromethoxy)benzamide] | 4.1 | 2
7 | COc1ccc(-c2c(NC(=O)c3ccc(OC(F)F)cc3)c(=O)n(-c3ncccc3C(F)(F)F)n2C)cc1F [Example 293, 4-(difluoromethoxy)-N-[5-(3-fluoro-4-methoxyphenyl)-1-methyl-3-oxo-2-[3-(trifluoromethyl)pyridin-2-yl]-2,3-dihydro-1H-pyrazol-4-yl]benzamide] | 1.2 | 9
8 | COc1ccc(-c2c(NC(=O)c3ccc(OC(F)F)cc3)c(=O)n(-c3ncccc3Cl)n2C)cc1F [Example 294, N-[2-(3-chloropyridin-2-yl)-5-(3-fluoro-4-methoxyphenyl)-1-methyl-3-oxo-2,3-dihydro-1H-pyrazol-4-yl]-4-(difluoromethoxy)benzamide] | 1.4 | 32
9 | COc1ccc(-c2c(NC(=O)c3ccc(OC(F)F)cc3)c(=O)n(-c3nc(Cl)ccc3C(F)(F)F)n2C)c(F)c1 [Example 295, N-{2-[6-chloro-3-(trifluoromethyl)pyridin-2-yl]-5-(2-fluoro-4-methoxyphenyl)-1-methyl-3-oxo-2,3-dihydro-1H-pyrazol-4-yl}-4-(difluoromethoxy)benzamide] | 1.5 | 1
